# Earlier results in PMC2742322 (Bioorganic & medicinal chemistry letters, 2008).
# Target: μ-opioid receptor (Cavia porcellus, UniProt A0ACM8Q262)
# Settings: read-out: IC50^μ (GPI); functional bioactivity
# Chain of μ-opioid receptor (A0ACM8Q262 1-400): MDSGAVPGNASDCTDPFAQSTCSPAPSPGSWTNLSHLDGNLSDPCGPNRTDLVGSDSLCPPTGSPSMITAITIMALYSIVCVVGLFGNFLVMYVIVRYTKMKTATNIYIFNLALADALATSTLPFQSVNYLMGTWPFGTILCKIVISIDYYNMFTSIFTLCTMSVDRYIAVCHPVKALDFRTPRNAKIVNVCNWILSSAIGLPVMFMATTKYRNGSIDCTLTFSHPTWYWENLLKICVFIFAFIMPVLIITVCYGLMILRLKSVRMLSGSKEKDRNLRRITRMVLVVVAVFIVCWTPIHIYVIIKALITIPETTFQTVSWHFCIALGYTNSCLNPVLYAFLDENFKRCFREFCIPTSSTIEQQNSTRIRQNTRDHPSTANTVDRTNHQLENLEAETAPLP
substance,measurement,value
Tyr^1-Pro^2-Trp^3-Phe^4-NH2 [EM-1],IC50,9.7 ± 2.21 nM
